# Experimental data from ChEMBL document CHEMBL5329217, “Hesperidin Methyl Chalcone reduces extracellular Aβ(25-35) peptide aggregation and fibrillation and also protects Neuro 2a cells from Aβ(25-35) induced neuronal dysfunction” (Bioorg Med Chem, 2023).
# The source made the active and inactive calls. The calls are words filed in the database; no cut-off is given here.
# Legend:
# [1] = target: Acetylcholinesterase (Electrophorus electricus) (UniProt O42275); experiment: Inhibition of electric eel AchE using acetylthiocholine iodide as substrate at 20 to 100 ug/ml by Ellman's method relative to control; settings: dose 20-100 µg/ml
# [2] = target: Acetylcholinesterase (Electrophorus electricus) (UniProt O42275); experiment: Inhibition of electric eel AchE using acetylthiocholine iodide as substrate at 100 ug/ml by Ellman's method relative to control; settings: dose 100.0 µg/ml
# [3] = Antioxidant activity assessed as free radical scavenging activity at 100 ug/ml by DPPH assay relative to control; format: functional; settings: dose 100.0 µg/ml
# [4] = Toxicity in Artemia salina assessed as mortality rate at 5 ug/ml measured after 24 hrs relative to control; format: organism-based; settings: in vivo, at 5 µg/mL
# [5] = Toxicity in Artemia salina assessed as mortality rate at 25 ug/ml measured after 24 hrs relative to control; format: organism-based; settings: in vivo, at 25 µg/mL
# [6] = Toxicity in Artemia salina assessed as mortality rate at 50 ug/ml measured after 24 hrs relative to control; format: organism-based; settings: in vivo, at 50 µg/mL
# [7] = Toxicity in Artemia salina assessed as mortality rate at 75 ug/ml measured after 24 hrs relative to control; format: organism-based; settings: in vivo, at 75 µg/mL
# [8] = Toxicity in Artemia salina assessed as mortality rate at 100 ug/ml measured after 24 hrs relative to control; format: organism-based; settings: in vivo, at 100 µg/mL
# [9] = Toxicity in Artemia salina assessed as lethal dose; format: organism-based; settings: in vivo
# Artemia salina [10] = experiment: Toxicity in Artemia salina assessed as induction of morphological changes by measuring variation in the mandibles at 5 to 100 ug/ml treated for 24 hrs by phase contrast light microscopy; format: organism-based; settings: in vivo, dose 5-100 µg/ml
# Artemia salina [11] = experiment: Toxicity in Artemia salina assessed as induction of morphological changes by measuring improper development at 5 to 100 ug/ml treated for 24 hrs by phase contrast light microscopy; format: organism-based; settings: in vivo, dose 5-100 µg/ml
# Artemia salina [12] = experiment: Toxicity in Artemia salina assessed as induction of morphological changes by measuring improper antennae swimming setae at 5 to 100 ug/ml treated for 24 hrs by phase contrast light microscopy; format: organism-based; settings: in vivo, dose 5-100 µg/ml
# Artemia salina [13] = experiment: Toxicity in Artemia salina assessed as decrease in total length of the shrimp at 5 to 100 ug/ml measured after 24 hrs by phase contrast light microscopy; format: organism-based; settings: in vivo, dose 5-100 µg/ml
# [14] = target: Amyloid-beta precursor protein (Homo sapiens) (UniProt P05067); experiment: Inhibition of amyloid beta (25 to 35) (unknown origin) aggregation assessed as fluorescence intensity at 50 ug/ml incubated for 24 hrs by ThT-based fluorescence analysis (reference value: 22.15 +/-1.41 AU); settings: dose 50.0 µg/ml
# [15] = target: Amyloid-beta precursor protein (Homo sapiens) (UniProt P05067); experiment: Inhibition of amyloid beta (25 to 35) (unknown origin) aggregation assessed as fluorescence intensity at 50 ug/ml incubated for 48 hrs by ThT-based fluorescence analysis (reference value: 26.85 +/-0.78 AU); settings: dose 50.0 µg/ml
# [16] = target: Amyloid-beta precursor protein (Homo sapiens) (UniProt P05067); experiment: Inhibition of amyloid beta (25 to 35) (unknown origin) aggregation assessed as fluorescence intensity at 50 ug/ml incubated for 96 hrs by ThT-based fluorescence analysis (reference value: 31.63 +/-0.68 AU); settings: dose 50.0 µg/ml
# [17] = target: Amyloid-beta precursor protein (Homo sapiens) (UniProt P05067); experiment: Inhibition of amyloid beta (25 to 35) (unknown origin) aggregation assessed as fluorescence intensity at 50 ug/ml incubated for 9 days by ThT-based fluorescence microscopic analysis (reference value: 36.84 +/-0.94 AU); settings: dose 50.0 µg/ml, time 9.0 day
# [18] = target: Amyloid-beta precursor protein (Homo sapiens) (UniProt P05067); experiment: Disaggregation of amyloid beta (25 to 35) (unknown origin) mature fibrils at 50 ug/ml incubated for 1 to 9 days by ThT-based fluorescence microscopic analysis; settings: dose 50.0 µg/ml, time 1-9 day
# N2a [19] = experiment: Cytotoxicity against mouse Neuro2a cells upto 200 ug/ml incubated for 24 hrs by MTT assay; format: toxicity, cell-based; settings: dose < 200 µg/ml
# [20] = Cytotoxicity against mouse Neuro2a cells assessed as cell viability at 100 ug/ml incubated for 24 hrs by MTT assay; format: toxicity, cell-based; settings: Neuro2a (N2a) cells, at 100 µg/mL, read-out: Activity
# N2a [21] = experiment: Neuroprotective activity against Amyloid beta (25 to 35)-induced toxicity in mouse Neuro2a cells assessed as reduction in cell viability loss at 25 to 100 ug/ml pretreated for 2 hrs followed by amyloid beta (25 to 35) addition and measured after 24 hrs by MTT assay; format: functional, cell-based; settings: dose 25-100 µg/ml, time 26.0 hrs
# N2a [22] = experiment: Inhibition of Amyloid beta (25 to 35)-induced oxidative damage in mouse Neuro2a cells assessed as reduction in ROS production by measuring reduction in fluorescence intensity at 25 to 50 ug/ml pretreated for 2 hrs followed by amyloid beta (25 to 35) addition and measured after 24 hrs by DCFH-DA staining -based spectrofluorimetric assay; format: functional, cell-based; settings: dose 25-50 µg/ml, time 26.0 hrs
# N2a [23] = experiment: (§1) Inhibition of Amyloid beta (25 to 35)-induced macromolecular damage in mouse Neuro2a cells assessed as reduction in lipid peroxidation by measuring MDA content at 25 ug/ml pretreated for 2 hrs followed by amyloid beta (25 to 35) addition and measured after 24 hrs per mg protein (reference value: 106.4 +/-1.9 nmol); format: functional; settings: dose 25 µg/ml; time 26 hrs
# N2a [24] = experiment: as §1, with “at 50” for “at 25”; format: functional; settings: dose 50 µg/ml; time 26 hrs
# N2a [25] = experiment: as §1, with “protein oxidation” for “lipid peroxidation”, “protein carbonyl” for “MDA”, “44.06 +/- 1.02” for “106.4 +/-1.9”; format: functional; settings: dose 25 µg/ml; time 26 hrs
# N2a [26] = experiment: Inhibition of Amyloid beta (25 to 35)-induced macromolecular damage in mouse Neuro2a cells assessed as reduction in protein oxidation by measuring protein carbonyl content at 50 ug/ml pretreated for 2 hrs followed by amyloid beta (25 to 35) addition and measured after 24 hrs per mg protein (reference value: 44.06 +/- 1.02 […]); format: functional; settings: dose 50 µg/ml; time 26 hrs
# N2a [27] = experiment: Inhibition of Amyloid beta (25 to 35)-induced mitochondrial membrane potential loss in mouse Neuro2a cells at 25 to 50 ug/ml pretreated for 2 hrs followed by amyloid beta (25 to 35) addition and measured after 24 hrs by rhodamine 123 staining based fluorescent spectrophotometry; format: functional, cell-based; settings: dose 25-50 µg/ml, time 26.0 hrs
# [28] = target: T1, Acetylcholinesterase (Mus musculus) (UniProt P21836); experiment: Inhibition of Amyloid beta (25 to 35)-induced AChE activity in mouse Neuro2a cells assessed as AChE activity at 25 ug/ml pretreated for 2 hrs followed by amyloid beta (25 to 35) addition and measured after 24 hrs per mg protein (reference value: 0.0012 +/-4.18 U); format: cell-based; settings: dose 25.0 µg/ml, time 26.0 hrs
# T1 sequence (whole entry): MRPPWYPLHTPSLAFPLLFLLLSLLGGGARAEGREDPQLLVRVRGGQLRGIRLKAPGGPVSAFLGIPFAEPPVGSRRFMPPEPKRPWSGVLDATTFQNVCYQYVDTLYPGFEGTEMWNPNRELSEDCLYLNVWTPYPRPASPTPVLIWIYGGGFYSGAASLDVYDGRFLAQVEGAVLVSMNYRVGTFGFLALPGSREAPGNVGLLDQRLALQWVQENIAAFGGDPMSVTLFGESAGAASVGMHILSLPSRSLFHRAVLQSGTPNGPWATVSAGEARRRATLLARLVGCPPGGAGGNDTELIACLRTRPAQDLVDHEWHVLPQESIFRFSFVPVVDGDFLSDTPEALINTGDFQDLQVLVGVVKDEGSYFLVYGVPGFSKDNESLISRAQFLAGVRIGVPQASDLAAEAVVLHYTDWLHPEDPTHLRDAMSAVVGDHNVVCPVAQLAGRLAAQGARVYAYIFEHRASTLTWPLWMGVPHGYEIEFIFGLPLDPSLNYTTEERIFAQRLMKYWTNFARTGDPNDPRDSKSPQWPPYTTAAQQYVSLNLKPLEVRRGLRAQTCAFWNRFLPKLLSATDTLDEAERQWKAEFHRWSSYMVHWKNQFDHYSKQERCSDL
# [29] = target: T1, Acetylcholinesterase (Mus musculus); experiment: Inhibition of Amyloid beta (25 to 35)-induced AChE activity in mouse Neuro2a cells assessed as AChE activity at 50 ug/ml pretreated for 2 hrs followed by amyloid beta (25 to 35) addition and measured after 24 hrs per mg protein (reference value: 0.0012 +/-4.18 U); format: cell-based; settings: dose 50.0 µg/ml, time 26.0 hrs
# [30] = target: Cholinesterase (Mus musculus) (UniProt Q03311); experiment: Inhibition of Amyloid beta (25 to 35)-induced BuChE activity in mouse Neuro2a cells assessed as BuChE activity at 25 ug/ml pretreated for 2 hrs followed by amyloid beta (25 to 35) addition and measured after 24 hrs per mg protein (reference value: 0.0007 +/-3.64 U); format: cell-based; settings: dose 25.0 µg/ml, time 26.0 hrs
# [31] = target: Cholinesterase (Mus musculus) (UniProt Q03311); experiment: Inhibition of Amyloid beta (25 to 35)-induced BuChE activity in mouse Neuro2a cells assessed as BuChE activity at 50 ug/ml pretreated for 2 hrs followed by amyloid beta (25 to 35) addition and measured after 24 hrs per mg protein (reference value: 0.0007 +/-3.64 U); format: cell-based; settings: dose 50.0 µg/ml, time 26.0 hrs
# N2a [32] = experiment: (§2) Neuroprotective activity against Amyloid beta (25 to 35)-induced toxicity in mouse Neuro2a cells assessed as non-apoptotic viable cells at 25 ug/ml pretreated for 2 hrs followed by amyloid beta (25 to 35) addition and measured after 24 hrs by AO/EtBr dual staining based fluorescence microscopy (reference value: 53.4 +/-3.88%); format: functional; settings: dose 25 µg/ml; time 26 hrs
# N2a [33] = experiment: as §2, with “at 50” for “at 25”; format: functional; settings: dose 50 µg/ml; time 26 hrs
# N2a [34] = experiment: (§3) Inhibition of Amyloid beta (25 to 35)-induced apoptosis in mouse Neuro2a cells assessed as reduction in caspase-3 activity by measuring PNA level at 25 ug/ml pretreated for 2 hrs followed by amyloid beta (25 to 35) addition and measured after 24 hrs per mg protein (reference value: 0.12 +/-0.004 mM/min); format: functional; settings: dose 25 µg/ml; time 26 hrs
# N2a [35] = experiment: as §3, with “at 50” for “at 25”; format: functional; settings: dose 50 µg/ml; time 26 hrs
# N2a [36] = experiment: Inhibition of Amyloid beta (25 to 35)-induced apoptosis in mouse Neuro2a cells assessed as increase in BCl2 expression at 50 ug/ml pretreated for 2 hrs followed by amyloid beta (25 to 35) addition and measured after 24 hrs by Western blot analysis; format: functional, cell-based; settings: dose 50.0 µg/ml, time 26.0 hrs
# N2a [37] = experiment: Inhibition of Amyloid beta (25 to 35)-induced apoptosis in mouse Neuro2a cells assessed as decrease in Bax expression at 50 ug/ml pretreated for 2 hrs followed by amyloid beta (25 to 35) addition and measured after 24 hrs by Western blot analysis; format: functional, cell-based; settings: dose 50.0 µg/ml, time 26.0 hrs
# N2a [38] = experiment: Inhibition of Amyloid beta (25 to 35)-induced apoptosis in mouse Neuro2a cells assessed as Bax/Bcl2 ratio at 50 ug/ml pretreated for 2 hrs followed by amyloid beta (25 to 35) addition and measured after 24 hrs by Western blot analysis (reference value: 1.09 +/- 0.018); format: functional; settings: dose 50 µg/ml; time 26 hrs
# Amyloid-beta precursor protein (Homo sapiens), sequence (P05067 whole entry): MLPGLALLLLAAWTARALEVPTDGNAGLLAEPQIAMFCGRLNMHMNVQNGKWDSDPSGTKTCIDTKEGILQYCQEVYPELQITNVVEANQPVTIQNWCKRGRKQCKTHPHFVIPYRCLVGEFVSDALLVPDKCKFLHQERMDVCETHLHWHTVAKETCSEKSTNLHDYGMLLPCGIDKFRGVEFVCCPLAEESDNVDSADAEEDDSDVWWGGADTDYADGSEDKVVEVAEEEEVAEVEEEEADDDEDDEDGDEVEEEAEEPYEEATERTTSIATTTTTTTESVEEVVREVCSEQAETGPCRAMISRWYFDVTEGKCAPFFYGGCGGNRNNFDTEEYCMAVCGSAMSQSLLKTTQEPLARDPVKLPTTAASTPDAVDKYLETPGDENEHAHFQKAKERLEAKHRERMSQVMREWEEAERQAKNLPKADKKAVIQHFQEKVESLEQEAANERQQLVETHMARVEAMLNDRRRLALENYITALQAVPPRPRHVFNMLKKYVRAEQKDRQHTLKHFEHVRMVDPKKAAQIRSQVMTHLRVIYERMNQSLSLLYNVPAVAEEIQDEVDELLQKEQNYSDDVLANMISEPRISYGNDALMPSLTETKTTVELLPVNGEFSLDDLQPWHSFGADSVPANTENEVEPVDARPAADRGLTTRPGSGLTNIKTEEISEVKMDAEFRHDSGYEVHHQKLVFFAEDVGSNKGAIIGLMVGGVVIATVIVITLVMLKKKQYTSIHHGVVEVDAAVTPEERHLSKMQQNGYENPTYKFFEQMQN
# Acetylcholinesterase (Electrophorus electricus), sequence (O42275 24-633 limits assumed): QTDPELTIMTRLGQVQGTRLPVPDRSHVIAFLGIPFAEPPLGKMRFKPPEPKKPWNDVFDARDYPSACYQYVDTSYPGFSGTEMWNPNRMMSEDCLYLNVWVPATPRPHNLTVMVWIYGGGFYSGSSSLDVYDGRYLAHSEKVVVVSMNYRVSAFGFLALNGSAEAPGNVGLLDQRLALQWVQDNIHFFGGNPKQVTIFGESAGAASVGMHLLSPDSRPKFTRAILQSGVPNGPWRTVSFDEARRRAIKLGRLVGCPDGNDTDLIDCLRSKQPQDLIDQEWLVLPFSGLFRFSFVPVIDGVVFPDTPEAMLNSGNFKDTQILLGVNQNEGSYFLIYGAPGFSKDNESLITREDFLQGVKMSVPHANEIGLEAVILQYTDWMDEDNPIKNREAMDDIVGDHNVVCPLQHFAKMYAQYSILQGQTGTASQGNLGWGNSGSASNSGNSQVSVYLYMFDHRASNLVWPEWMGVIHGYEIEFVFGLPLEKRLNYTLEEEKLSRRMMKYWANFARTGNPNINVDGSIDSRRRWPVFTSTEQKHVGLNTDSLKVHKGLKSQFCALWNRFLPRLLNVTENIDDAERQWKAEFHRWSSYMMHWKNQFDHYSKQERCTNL
# Cholinesterase (Mus musculus), sequence (Q03311 whole entry): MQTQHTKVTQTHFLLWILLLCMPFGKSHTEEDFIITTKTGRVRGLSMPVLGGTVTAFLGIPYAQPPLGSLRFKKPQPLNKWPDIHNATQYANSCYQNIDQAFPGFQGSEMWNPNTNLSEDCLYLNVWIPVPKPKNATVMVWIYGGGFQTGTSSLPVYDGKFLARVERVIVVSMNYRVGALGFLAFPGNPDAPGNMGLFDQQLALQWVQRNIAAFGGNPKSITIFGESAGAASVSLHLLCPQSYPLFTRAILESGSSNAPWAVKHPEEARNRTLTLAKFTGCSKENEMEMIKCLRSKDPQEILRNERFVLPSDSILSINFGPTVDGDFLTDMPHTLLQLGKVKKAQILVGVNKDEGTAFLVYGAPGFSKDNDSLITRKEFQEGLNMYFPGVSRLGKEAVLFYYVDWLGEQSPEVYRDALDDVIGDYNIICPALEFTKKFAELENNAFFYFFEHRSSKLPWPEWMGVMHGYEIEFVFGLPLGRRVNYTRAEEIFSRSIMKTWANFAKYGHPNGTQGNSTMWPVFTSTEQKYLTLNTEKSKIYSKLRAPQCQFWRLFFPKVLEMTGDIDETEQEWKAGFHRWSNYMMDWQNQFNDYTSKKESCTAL
smiles,measurement,setting,value
COc1ccc(/C=C/C(=O)c2c(O)cc(O[C@@H]3O[C@H](CO[C@@H]4O[C@@H](C)[C@H](O)[C@@H](O)[C@H]4O)[C@@H](O)[C@H](O)[C@H]3O)cc2OC)cc1O,inhibition,[1],> 80%
same,inhibition,[2],93%
same,inhibition,[3],68.4%
same,"mortality at 24 h, 5 ug/ml",[4],0%
same,"mortality at 24 h, 25 ug/ml",[5],0%
same,"mortality at 24 h, 50 ug/ml",[6],3.33%
same,"mortality at 24 h, 75 ug/ml",[7],36.6%
same,"mortality at 24 h, 100 ug/ml",[8],53.3%
same,LC50,[9],100 µg/mL
same,Activity,Artemia salina [10],Toxic
same,Activity,Artemia salina [11],Toxic
same,Activity,Artemia salina [12],Toxic
same,Activity,Artemia salina [13],Toxic
same,Flu intensity,[14],19.8 a.u.
same,Flu intensity,[15],6.45 a.u.
same,Flu intensity,[16],10 a.u.
same,Flu intensity,[17],11.8 a.u.
same,Activity,[18],Active
same,Activity,N2a [19],Non-Toxic
same,"viability at 24 h, 100 ug/ml",[20],99.6%
same,Activity,N2a [21],Active
same,inhibition,N2a [22],Active
same,Activity,N2a [23],77.84 nmol
same,Activity,N2a [24],64.63 nmol
same,Activity,N2a [25],33.9 nmol/mg
same,Activity,N2a [26],27.9 nmol/mg
same,inhibition,N2a [27],Active
same,Activity,[28],0 U
same,Activity,[29],0 U
same,Activity,[30],0 U
same,Activity,[31],0 U
same,Activity,N2a [32],70.33%
same,Activity,N2a [33],81.66%
same,Activity,N2a [34],0.07 mM/min
same,Activity,N2a [35],0.03 mM/min
same,inhibition,N2a [36],Active
same,inhibition,N2a [37],Active
same,Ratio,N2a [38],0.51
COc1ccc([C@@H]2CC(=O)c3c(O)cc(O[C@@H]4O[C@H](CO[C@@H]5O[C@@H](C)[C@H](O)[C@@H](O)[C@H]5O)[C@@H](O)[C@H](O)[C@H]4O)cc3O2)cc1O,inhibition,[2],94.4%
same,inhibition,[3],56%
